| Structure (SMILES) | logP |
| --- | --- |
| O=C(NCCN1CCc2ccccc2C1)C1CCC1 | 2.9 |
| O=C(NCCN1CCc2ccccc2C1)C1CC1 | 2.76 |
| CC(C)C(=O)NCCCN1CCc2ccccc2C1 | 2.56 |
| O=C(NCCN1CCc2ccccc2C1)C1CCCCC1 | 3.14 |
| CC(=O)NCCCN1CCc2ccccc2C1 | 2.66 |
| O=C(NCCN1CCc2ccccc2C1)C12CC3CC(CC(C3)C1)C2 | 4.61 |
| CC(C)(C)C(=O)NCCCCN1CCc2ccccc2C1 | 3.31 |
| CC(=O)NCCN1CCc2ccccc2C1 | 1.83 |
| CC(C)C(=O)NCCN1CCc2ccccc2C1 | 2.87 |
| CC(C)(C)C(=O)NCCN1CCc2ccccc2C1 | 3.13 |
| CC(C)(C)C(=O)NCCCN1CCc2ccccc2C1 | 3.46 |
| O=C(NCCN1CCc2ccccc2C1)C1CCCC1 | 3.52 |

More lines, now with the values ahead:

| logP | Structure (SMILES) |
| --- | --- |
| 5.14 | O=C(NCCCN1CCc2ccccc2C1)C12CC3CC(CC(C3)C1)C2 |
| 2.75 | O=C(NCCCN1CCc2ccccc2C1)C1CC1 |
| 3.3 | O=C(NCCCCN1CCc2ccccc2C1)C1CCC1 |
| 4.37 | O=C(NCCN1CCc2ccccc2C1)C1CCC2CCCC21 (configuration not stated) |
| 4.46 | O=C(NCCCCN1CCc2ccccc2C1)C1CCC2CCCC21 (configuration not stated) |
| 2.3 | CC(=O)NCCCCN1CCc2ccccc2C1 |
| 3.44 | O=C(NCCCN1CCc2ccccc2C1)C1CCCCC1 |
| 4.58 | O=C(CC1CC2CCC1C2)NCCCCN1CCc2ccccc2C1 (configuration not stated) |
| 3.45 | O=C(NCCCN1CCc2ccccc2C1)C1CCCC1 |
| 2.93 | CC(C)C(=O)NCCCCN1CCc2ccccc2C1 |
| 3.12 | O=C(NCCCN1CCc2ccccc2C1)C1CCC1 |
| 3.02 | O=C(NCCCCN1CCc2ccccc2C1)C1CC1 |
| 4.26 | O=C(CC1CC2CCC1C2)NCCN1CCc2ccccc2C1 (configuration not stated) |
| 4.5 | O=C(NCCCN1CCc2ccccc2C1)C1CCC2CCCC21 (configuration not stated) |
| 4.82 | O=C(NCCCCN1CCc2ccccc2C1)C12CC3CC(CC(C3)C1)C2 |
